# Data from patent US4001248A, “N-cycloalkylmethyl decahydroisoquinolines” (Eli Lilly and Company, priority 1974, dated 1977).
# Where a name gives a salt, the structure may show the parent alone. Read-outs that look alike come from different tables or passages of the source.
# Legend:
# [1] = system: writhing in mice induced by the intraperitoneal injection of acetic acid; experiment: mouse-writhing test (inhibition of writhing induced by intraperitoneal acetic acid); type: in vivo; conditions: for ED50: Mus musculus, read-out: Median inhibiting dose (I.D.50)
# Description: In the Table, column 1 gives the name of the compund; column 2, the dosage in mg./kg. of mouse weight; column 3, the route of administration of the drug ("S.C." is subcutaneous and "or" is oral); and column 4, the percent inhibition found at the particular dose level. […] Median inhibiting doses (I.D.50) are also included in the Table.
# rat tail jerk = rat tail jerk assay (increase in reaction time over control); type: in vivo
# Description: The compounds of this invention are also active in the rat tail jerk assay, another standard pharmacologic test for analgesic activity of the opiate-type. Such activity is manifested as an increase in the reaction time of the animal in removing (jerking) its tail from a nearby heat stimulus (a resistance wire) after drug administration compared to control time (no drug administered). Table 2 which follows gives the increased reaction times over control times produced by the compounds of this invention when administered subcutaneously. In Tables 2 and 3, column 1 gives the name of the compound; column 2, the dose; column 3, time of observation after administration of the drug; column 4, the increase in reaction time above control in seconds; and column 5, the level of significance of the results ("p" value). […] All drugs were administered as aqueous solutions. More than one value for a given dose level indicates multiple determinations. The results are not averaged.
# morphine = experiment: modified rat tail jerk assay, antagonism of morphine; type: in vivo, rats
# Method: The ability of the compounds of this invention to antagonize the action of morphine, an opiate, is shown by the following modification of the aforementioned rat tail jerk assay: The standard assay procedure is used with the exception that a 7 amps. current is used instead of a 6 amps. current in the hot wire to decrease the measurable agonist effects of the antagonist. The drugs under test are then administered to groups of rats at different dose levels at different times prior to test, with a 5 mg./kg. dose of morphine invariably being administered 10 minutes prior to test. Positive evidence of antagonism is a decreased reaction time over that to be expected from the morphine. […] Among the compounds of this invention, those in which R in Structure I is cyclopropylmethyl are the preferred antagonists, showing activity in the above test procedure. […] In a series of determinations, it was ascertained that the minimum subcutaneous dose necessary to reduce the analgesic effects of a 5 mg./kg. subcutaneous dose of morphine was in the range 2.5-5.0 mg./kg. and the minimum oral dose, 5-10 mg./kg.
# [2] = prior art; cited from earlier work
# [3] = 20 mg./kg. S.C., reading at 0.5 hours
# [4] = 20 mg./kg. oral, reading at 0.5 hours
# [5] = 100 mg./kg. S.C., reading at 0.5 hours
# [6] = 100 mg./kg. oral, reading at 0.5 hours
structure (smiles),measurement,setting,value
"Oc1cccc([C@]23CCCC[C@@H]2CN(CC2CCC2)CC3)c1 (relative stereo) [Trans-dl-1-cyclobutylmethyl-3a-(m-hydroxyphenyl)-1,2,3,3a,4,5,6,7,7a,8-decahydroisoquinoline maleate]",% Inhibition,"[1]; 1 mg./kg. S.C., reading at 0.5 hours",46%
same,% Inhibition,"[1]; 2 mg./kg. S.C., reading at 0.5 hours",96%
same,% Inhibition,[1]; [3],100%
same,% Inhibition,[1]; [4],36%
same,% Inhibition,[1]; [5],100%
same,% Inhibition,[1]; [6],100%
same,Increase in Reaction Time Over Control,"rat tail jerk; oral, 10 mg./kg., 10 min",.43 s
same,Increase in Reaction Time Over Control,"rat tail jerk; oral, 10 mg./kg., 30 min",.63 s
same,Increase in Reaction Time Over Control,"rat tail jerk; oral, 10 mg./kg., 60 min",.21 s
same,Increase in Reaction Time Over Control,"rat tail jerk; oral, 25 mg./kg., 30 min",1.71 s
same,Increase in Reaction Time Over Control,"rat tail jerk; oral, 25 mg./kg., 60 min",1.04 s
same,Increase in Reaction Time Over Control,"rat tail jerk; oral, 50 mg./kg., 30 min",12.42 s
same,Increase in Reaction Time Over Control,"rat tail jerk; subcutaneous, 0.25 mg./kg., 30 min",.71 s
same,Increase in Reaction Time Over Control,"rat tail jerk; subcutaneous, 0.5 mg./kg., 30 min",.21 s
same,Increase in Reaction Time Over Control,"rat tail jerk; subcutaneous, 1 mg./kg., 10 min",.46 s
same,Increase in Reaction Time Over Control,"rat tail jerk; subcutaneous, 1 mg./kg., 30 min",1.63 s
same,Increase in Reaction Time Over Control,"rat tail jerk; subcutaneous, 1 mg./kg., 60 min",.17 s
same,Increase in Reaction Time Over Control,"rat tail jerk; subcutaneous, 2 mg./kg., 10 min",2.17 s
same,Increase in Reaction Time Over Control,"rat tail jerk; subcutaneous, 2 mg./kg., 30 min",2.50 s
same,Increase in Reaction Time Over Control,"rat tail jerk; subcutaneous, 2 mg./kg., 60 min",.96 s
same,Increase in Reaction Time Over Control,"rat tail jerk; subcutaneous, 10 mg./kg., 10 min",17.88 s
same,Increase in Reaction Time Over Control,"rat tail jerk; subcutaneous, 10 mg./kg., 30 min",23.04 s
same,Increase in Reaction Time Over Control,"rat tail jerk; subcutaneous, 10 mg./kg., 60 min",22.13 s
"COc1cccc([C@]23CCCC[C@@H]2CN(CC2CC2)CC3)c1 (relative stereo) [Trans-dl-1-cyclopropylmethyl-3a-(m-methoxyphenyl)-1,2,3,3a,4,5,6,7,7a,8-decahydroisoquinoline maleate]",% Inhibition,"[1]; 10 mg./kg. S.C., reading at 0.5 hours",20%
same,% Inhibition,[1]; [3],64%
same,% Inhibition,"[1]; 20 mg./kg. oral, reading at 0.25 hours",5%
same,% Inhibition,[1]; [4],13%
same,% Inhibition,"[1]; 50 mg./kg. oral, reading at 0.25 hours",79%
same,% Inhibition,"[1]; 50 mg./kg. oral, reading at 0.5 hours",69%
same,% Inhibition,[1]; [5],100%
same,% Inhibition,"[1]; 100 mg./kg. oral, reading at 0.25 hours",89%
same,% Inhibition,[1]; [6],87%
same,ED50,"[1]; sc, S.C.",10 to 20 mg/kg
same,ED50,[1]; oral,20 to 50 mg/kg
same,Increase in Reaction Time Over Control,"rat tail jerk; oral, 20 mg./kg., 30 min",1.10 s
same,Increase in Reaction Time Over Control,"rat tail jerk; oral, 20 mg./kg., 120 min",.20 s
same,Increase in Reaction Time Over Control,"rat tail jerk; oral, 80 mg./kg., 30 min",8.05 s
same,Increase in Reaction Time Over Control,"rat tail jerk; oral, 80 mg./kg., 120 min",1.19 s
same,Increase in Reaction Time Over Control,"rat tail jerk; subcutaneous, 80 mg./kg., 30 min",1.75 s
same,Increase in Reaction Time Over Control,"rat tail jerk; subcutaneous, 80 mg./kg., 120 min",1.05 s
"COc1cccc([C@]23CCCC[C@@H]2CN(CC2CC2)CC3)c1 (relative stereo) [Trans-dl-1-cyclopropylmethyl-3a-(m-methoxyphenyl)-1,2,3,3a,4.5,6,7,7a,8-decahydroisoquinoline]",antagonism of morphine,morphine; dose not stated,found to antagonize morphine
"Oc1cccc([C@]23CCCC[C@@H]2CN(CC2CC2)CC3)c1 (stereo in doubt) [Trans-dl-1-cyclopropylmethyl-3a-(m-hydroxyphenyl)-1,2,3,3a,4,5,6,7,7a,8-decahydroisoquinoline]",antagonism of morphine analgesia,"morphine; 50 mg./kg. oral, 30 minutes prior to test, morphine 5 mg./kg. 10 minutes prior to test",reduces the analgesic response to 5 mg./kg. of morphine
same,% Inhibition,"[1]; 2 mg./kg. S.C., reading at 0.25 hours",43%
same,% Inhibition,"[1]; 5 mg./kg. S.C., reading at 0.25 hours",70%
same,ED50,"[1]; sc, S.C., readings of this compound at 0.25 hours",2 to 5 mg/kg
C=CCN1CC[C@]23c4c5ccc(OC)c4O[C@H]2[C@@H](O)C=C[C@H]3[C@H]1C5 [N-allylnorcodeine],opiate antagonist / agonist properties,[2],opiate antagonist
COc1ccc2c3c1O[C@H]1[C@@H](O)C=C[C@H]4[C@@H](C2)N(C)CC[C@@]341 [codeine],analgesic activity,[2],relatively mild analgesic agonist
same,dependance (addiction) liability,[2],slight dependance (addiction) liability
CC(=O)Oc1ccc2c3c1O[C@H]1[C@@H](OC(C)=O)C=C[C@H]4[C@@H](C2)N(C)CC[C@@]341 [heroin],analgesic activity,[2],powerful agonist
same,dependance (addiction) liability,[2],extremely high addiction potential
"C=CCN1CC[C@]23c4c5ccc(O)c4O[C@H]2[C@@H](O)C=C[C@H]3[C@H]1C5 [nalorphine, N-allylnormorphine]",opiate antagonist / agonist properties,[2],highly specific ability to reverse the depressant effects of morphine
CC(C)=CCN1CCC2(C)c3cc(O)ccc3CC1C2C (stereo not shown) [pentazocine],dependance (addiction) liability,[2],retain a certain degree of opiate dependance liability
same,opiate antagonist / agonist properties,[2],both antagonists and agonists
CC1C2Cc3ccc(O)cc3C1(C)CCN2CCc1ccccc1 (stereo not shown) [phenazocine],dependance (addiction) liability,[2],retain a certain degree of opiate dependance liability
same,opiate antagonist / agonist properties,[2],both antagonists and agonists
